Results taken from patent US20140309210A1, “INDAZOLE COMPOUNDS, COMPOSITIONS AND METHODS OF USE THEREOF” (Genentech, Inc., priority 2011, published 2014).

Molecular target: T1, purified ITK (Invitrogen PV3875) (Homo sapiens, UniProt Q08881)
T1 construct: purchased Invitrogen PV3875
T1 sequence (Q08881 1-620): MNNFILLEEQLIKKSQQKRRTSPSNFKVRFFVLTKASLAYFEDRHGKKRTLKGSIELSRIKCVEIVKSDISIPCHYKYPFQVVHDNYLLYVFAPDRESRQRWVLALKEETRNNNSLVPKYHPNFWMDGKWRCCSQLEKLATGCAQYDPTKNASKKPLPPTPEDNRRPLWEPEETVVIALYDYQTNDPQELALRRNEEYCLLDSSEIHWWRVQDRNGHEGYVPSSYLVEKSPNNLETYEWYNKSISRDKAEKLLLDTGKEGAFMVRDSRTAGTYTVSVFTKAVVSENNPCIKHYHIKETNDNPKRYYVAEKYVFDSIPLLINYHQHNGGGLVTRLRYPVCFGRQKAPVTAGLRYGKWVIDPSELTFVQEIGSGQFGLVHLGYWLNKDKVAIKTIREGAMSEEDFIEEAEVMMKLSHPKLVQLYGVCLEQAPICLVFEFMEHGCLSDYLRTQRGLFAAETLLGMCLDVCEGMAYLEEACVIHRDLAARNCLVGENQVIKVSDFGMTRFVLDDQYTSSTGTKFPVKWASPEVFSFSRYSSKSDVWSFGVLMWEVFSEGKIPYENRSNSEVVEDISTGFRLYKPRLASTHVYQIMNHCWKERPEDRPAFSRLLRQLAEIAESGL
Experiment: ITK peptide phosphorylation assay (Caliper LabChip or LCMS)
Format: biochemical
Summary of the method: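 Ki values come from Morrison quadratic fits of activity versus inhibitor concentration, adjusted for ATP-competitive inhibition against ATP/Km,app. Substrate and phosphopeptide from purified ITK reactions were resolved either microfluidically (Caliper, EDTA stop) or by LC-MS MRM (TCA stop).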

[1] = Table 2, Examples 1-140, class symbols
[2] = Table 3, specific values for certain examples

Compound	Ki (Table 1, Examples 141-279)	Ki [1]	Ki [2]
CN(C)CCC(c1cccc(C(F)(F)F)c1)n1cc(NC(=O)c2n[nH]c3cc(-c4cn[nH]c4)ccc23)cn1 (centres unmarked) [Example 248, N-[1-[3-(dimethylamino)-1-[3-(trifluorometh-yl)phenyl]propyl]py-razol-4-yl]-6-(1H-pyrazol-4-yl)-1H-indazole-3-carboxamide]	0.128 nM		
O=C(Nc1cnn(Cc2ccccc2)c1)c1n[nH]c2cc(-c3cn[nH]c3)cnc12 [Example 245, N-(1-benzylpyrazol-4-yl)-6-(1H-pyrazol-4-yl)-1H-pyrazolo[4,3-b]pyridine-3-carboxamide]	18.9 nM		
CC[C@@H](c1ccccc1)n1cc(NC(=O)c2n[nH]c3cc(-c4cncnc4)ccc23)cn1 [Example 138, (S)—N-(1-(1-phenylpropyl)-1H-pyrazol-4-yl)-6-(pyrimidin-5-yl)-1H-indazole-3-carboxamide]		1 to 100 nM	5.6 nM
O=C(Nc1cnn(Cc2cc(-c3ccccc3)on2)c1)c1n[nH]c2cc(-c3cn[nH]c3)ccc12 [Example 16, 6-(1H-Pyrazol-4-yl)-1H-indazole-3-carboxylic acid [1-(5-phenyl-isoxazol-3-ylmethyl)-1H-pyrazol-4-yl]-amide]		1 to 100 nM	6.9 nM
N#Cc1cccc(Cn2cc(NC(=O)c3n[nH]c4cc(-c5cc[nH]n5)c(F)cc34)cn2)c1 [Example 155, N-[1-[(3-cyanophenyl)meth-yl]pyrazol-4-yl]-5-fluoro-6-(1H-pyrazol-3-yl)-1H-indazole-3-carboxamide]	99.9 nM		
CN1CCOc2cc(-c3ccc4c(C(=O)Nc5cnn(Cc6cccnc6)c5)n[nH]c4c3)cnc21 [Example 231, 6-(4-methyl-2,3-dihydropyrido[3,2-b][1,4]oxazin-7-yl)-N-[1-(3-pyridylmethyl)py-razol-4-yl]-1H-indazole-3-carboxamide]	40.8 nM		
CC(C)n1cc(NC(=O)c2n[nH]c3cc(-c4cn[nH]c4)ccc23)cn1 [Example 192, N-(1-isopropylpyrazol-4-yl)-6-(1H-pyrazol-4-yl)-1H-indazole-3-carboxamide]	10.2 nM		
Cc1cc2c(C(=O)Nc3cnn(Cc4cccc(C#N)c4)c3)n[nH]c2cc1-c1cncc(C#N)c1 [Example 148, N-[1-[(3-cyanophenyl)meth-yl]pyrazol-4-yl]-6-(5-cyano-3-pyridyl)-5-methyl-1H-indazole-3-carboxamide]	57.2 nM		
O=C(Nc1cnn(Cc2cccc(-c3ccncc3)c2)c1)c1n[nH]c2cc(-c3cn[nH]c3)ccc12 [Example 37, 6-(1H-Pyrazol-4-yl)-1H-indazole-3-carboxylic acid [1-(3-pyridin-4-yl-benzyl)-1H-pyrazol-4-yl]-amide]		0.01 to 1 nM	
O=C(Nc1cnn(CC2CCCO2)c1)c1n[nH]c2cc(-c3cn[nH]c3)ccc12 (centres unmarked) [Example 239, 6-(1H-pyrazol-4-yl)-N-[1-(tetrahydrofuran-2-ylmethyl)pyrazol-4-yl]-1H-indazole-3-carboxamide]	6.58 nM		
COCCN(C)CC(c1cccnc1)n1cc(NC(=O)c2n[nH]c3cc(-c4cncc(OC)c4)ccc23)cn1 (centres unmarked) [Example 228, N-[1-[2-[2-methoxyethyl(meth-yl)amino]-1-(3-pyridyl)ethyl]py-razol-4-yl]-6-(5-methoxy-3-pyridyl)-1H-indazole-3-carboxamide]	5.54 nM		
CN1CCN(c2ccc3c(C(=O)Nc4cnn(Cc5cccc(C#N)c5)c4)n[nH]c3c2)CC1 [Example 176, N-[1-[(3-cyanophenyl)meth-yl]pyrazol-4-yl]-6-(4-methylpiperazin-1-yl)-1H-indazole-3-carboxamide]	374 nM		
CC[C@@H](c1ccccc1)n1cc(NC(=O)c2n[nH]c3cc(-c4cc[nH]n4)ccc23)cn1 [Example 137, (S)—N-(1-(1-phenylpropyl)-1H-pyrazol-4-yl)-6-(1H-pyrazol-3-yl)-1H-indazole-3-carboxamide]		1 to 100 nM	9.9 nM
O=C(Nc1cnn(Cc2csc(-c3ccccc3)n2)c1)c1n[nH]c2cc(-c3cn[nH]c3)ccc12 [Example 20, 6-(1H-Pyrazol-4-yl)-1H-indazole-3-carboxylic acid [1-(2-phenyl-thiazol-4-ylmethyl)-1H-pyrazol-4-yl]-amide]		1 to 100 nM	
CNCc1ccc(Cn2cc(NC(=O)c3n[nH]c4ccccc34)cn2)cc1 [Example 112, N-(1-(4-((methylamino)methyl)benzyl)-1H-pyrazol-4-yl)-1H-indazole-3-carboxamide]		1 to 100 nM	
CN(CCC(c1ccccc1)n1cc(NC(=O)c2n[nH]c3ccccc23)cn1)CC(F)F (centres unmarked) [Example 274, N-[1-[3-[2,2-difluoroethyl(meth-yl)amino]-1-phenyl-propyl]pyrazol-4-yl]-1H-indazole-3-carboxamide]	84.8 nM		
CN1CCN(c2nc(Cn3cc(NC(=O)c4n[nH]c5cc(-c6cn[nH]c6)ccc45)cn3)cs2)CC1 [Example 42, N-[1-[[2-(4-methylpiperazin-1-yl)thiazol-4-yl]methyl]pyrazol-4-yl]-6-(1H-pyrazol-4-yl)-1H-indazole-3-carboxamide]		1 to 100 nM	

Compound	Ki (Table 1, Examples 141-279)	Ki [1]	Ki [2]
COc1ccc(Cn2cc(NC(=O)c3n[nH]c4ccccc34)cn2)cc1 [Example 66, N-(1-(4-methoxybenzyl)-1H-pyrazol-4-yl)-1H-indazole-3-carboxamide]		1 to 100 nM	37.7 nM
N#Cc1ccc(Cn2cc(NC(=O)c3n[nH]c4cc(-c5cn[nH]c5)ccc34)cn2)s1 [Example 27, 6-(1H-Pyrazol-4-yl)-1H-indazole-3-carboxylic acid [1-(5-cyano-thiophen-2-ylmethyl)-1H-pyrazol-4-yl]-amide]		0.01 to 1 nM	
C#Cc1cccc(Cn2cc(NC(=O)c3n[nH]c4cc(-c5cn[nH]c5)ccc34)cn2)c1 [Example 25, N-[1-[(3-ethynylphenyl)methyl]pyrazol-4-yl]-6-(1H-pyrazol-4-yl)-1H-indazole-3-carboxamide]		1 to 100 nM	
O=C(Nc1cnn(CCCN2CCCC(O)C2)c1)c1n[nH]c2ccccc12 (centres unmarked) [Example 74, N-(1-(3-(3-Hydroxypiperidin-1-yl)propyl)-1H-pyrazol-4-yl)-1H-indazole-3-carboxamide]		> 100 nM	
O=C(Nc1cnn(CC2CCCCC2)c1)c1n[nH]c2cc(-c3cn[nH]c3)ccc12 [Example 243, N-[1-(cyclohexylmeth-yl)pyrazol-4-yl]-6-(1H-pyrazol-4-yl)-1H-indazole-3-carboxamide]	2.43 nM		
O=C(Nc1cnn(Cc2cncnc2)c1)c1n[nH]c2cc(-c3cn[nH]c3)ccc12 [Example 226, 6-(1H-pyrazol-4-yl)-N-[1-(pyrimidin-5-ylmethyl)pyrazol-4-yl]-1H-indazole-3-carboxamide]	1.12 nM		
CN(CCC#N)Cc1cccc(Cn2cc(NC(=O)c3n[nH]c4ccccc34)cn2)c1 [Example 100, N-(1-(3-(((2-cyanoethyl)(methyl)amino)methyl)benzyl)-1H-pyrazol-4-yl)-1H-indazole-3-carboxamide]		1 to 100 nM	
O=C(Nc1cnn(Cc2ccccc2F)c1)c1n[nH]c2ccccc12 [Example 65, N-(1-(2-fluorobenzyl)-1H-pyrazol-4-yl)-1H-indazole-3-carboxamide]		1 to 100 nM	
Cc1ncccc1-c1ccc2c(C(=O)Nc3cnn(Cc4cccc(C#N)c4)c3)n[nH]c2c1 [Example 118, N-(1-(3-cyanobenzyl)-1H-pyrazol-4-yl)-6-(2-methylpyridin-3-yl)-1H-indazole-3-carboxamide]		> 100 nM	110 nM
Cc1cccc(Cn2cc(NC(=O)c3n[nH]c4ccccc34)cn2)c1 [Example 55, N-(1-(3-methylbenzyl)-1H-pyrazol-4-yl)-1H-indazole-3-carboxamide]		1 to 100 nM	
CC(=O)N(C)CCC(c1ccccc1)n1cc(NC(=O)c2n[nH]c3ccccc23)cn1 (centres unmarked) [Example 266, N-[1-[3-[acetyl(methyl)a-mino]-1-phenyl-propyl]pyrazol-4-yl]-1H-indazole-3-carboxamide]	100 nM		
CCCNCc1cccc(Cn2cc(NC(=O)c3n[nH]c4ccccc34)cn2)c1 [Example 97, N-(1-(3-((propylamino)methyl)benzyl)-1H-pyrazol-4-yl)-1H-indazole-3-carboxamide]		1 to 100 nM	
CN1CCC(Nc2ccc3[nH]nc(C(=O)Nc4cnn(Cc5cccc(C#N)c5)c4)c3c2)CC1 [Example 184, N-[1-[(3-cyanophenyl)meth-yl]pyrazol-4-yl]-5-[(1-methyl-4-piperidyl)amino]-1H-indazole-3-carboxamide]	1.33 nM		
Cc1ccc(-c2ccc3c(C(=O)Nc4cnn(Cc5cccc(C#N)c5)c4)n[nH]c3c2)cn1 [Example 120, N-(1-(3-cyanobenzyl)-1H-pyrazol-4-yl)-6-(6-methylpyridin-3-yl)-1H-indazole-3-carboxamide]		1 to 100 nM	
N#Cc1cccc(Cn2cc(NC(=O)c3n[nH]c4cc(C(F)(F)F)ccc34)cn2)c1 [Example 250, N-[1-[(3-cyanophenyl)meth-yl]pyrazol-4-yl]-6-(trifluoromethyl)-1H-indazole-3-carboxamide]	103 nM		
CC(C)(O)CNCc1cccc(Cn2cc(NC(=O)c3n[nH]c4ccccc34)cn2)c1 [Example 90, N-(1-(3-((2-hydroxy-2-methylpropylamino)methyl)benzyl)-1H-pyrazol-4-yl)-1H-indazole-3-carboxamide]		1 to 100 nM	
